Assay results as given in US20250073248A1, “BIORESORBABLE CATIONIC STEROIDAL ANTIMICROBIAL COMPOUNDS WITH GLYCERIDE LINKAGES” (BRIGHAM YOUNG UNIVERSITY, priority 2023, published 2025).
In brackets after ≈: the same amount, converted by molar mass.

What was measured:
[1] = system: methicillin-resistant Staphylococcus aureus (MRSA); assay: MIC and MBC, broth microdilution, MRSA (Table 1); assay type: cell-based; conditions: for MBC / MIC: Staphylococcus aureus; for MIC: first value of cell
From the text: (§1) To investigate the antimicrobial impact of structural variance in the novel bioresorbable CSA compounds disclosed herein,Pseudomonas aeruginosa 01 (PA01), methicillin-resistant Staphylococcus aureus (MRSA), and Candida albicans (CA) were selected, representing Gram-negative bacterial, Gram-positive bacterial, and fungal pathogens of high or critical priority on the world health organization's priority lists for bacteria and fungi. Earlier applications of CSA compounds have focused on preventing medical device infections, and all three strains are commonly found in colonized implants, making efficacy against these pathogens an important indicator of future applicability.
(§2) All compounds were screened against these pathogens to determine their minimum inhibitory concentration (MIC), minimum bactericidal concentration (MBC), and minimum fungicidal concentration (MFC) using a broth microdilution method. […] Of these three, only CSA-4110 was similarly active against PA01and CA, inhibiting growth at 8 μg/mL.

[2] = system: Pseudomonas aeruginosa 01 (PA01); assay: MIC and MBC, broth microdilution, PA01 (Table 1); assay type: cell-based; conditions: for MBC / MIC: Pseudomonas aeruginosa; for MBC / MBC or MFC: value in parentheses; for MIC: first value of cell
From the text: as §1, §2

Candida albicans (CA) = assay: MIC and MFC, broth microdilution, CA (Table 1); assay type: cell-based; conditions: for MBC / MIC: Candida albicans; for MBC / MBC or MFC: MFC, value in parentheses; for MIC: first value of cell
From the text: as §1, §2

Candida albicans 90028 = assay: Example 1 MIC/MFC (FIG. 1, FIG. 2), C. albicans; assay type: cell-based
Procedure: (§3) The antimicrobial activities of CSA-4108, CSA-4110, CSA-4112, and CSA-4114 were determined relative to methicillin-resistant Staphylococcus aureus (MRSA), Pseudomonas aeruginosa (Pa), and Candida albicans 90028. The minimum inhibitory concentration (MIC) for CSA-4108, CSA-4110, CSA-4112, and CSA-4114 relative to the foregoing microbes is graphically reported in FIG. 1. The minimum bactericidal concentration (MBC) and minimum fungicidal concentration […] for CSA-4108, CSA-4110, CSA-4112, and CSA-4114 relative to the foregoing microbes are graphically reported in FIG. 2.

MRSA ATCC BAA-42 = assay: Membrane depolarization, DiSC2(5) fluorescence; assay type: cell-based, Staphylococcus aureus; conditions: 8 μg/mL, FIG. 5
Procedure: Reference is made to FIGS. 4 and 5. […] CSA-131 or CSA-4110 was added at 140 second to achieve 8 μg/mL after addition.
Antimicrobial peptides (AMPs) and CSA compounds are known to permeabilize bacterial membranes. For bacterial survival, the cytoplasmic membrane must be polarized. Depolarization of this membrane prevents ATP synthesis and leads to cell death. The dye 3,3′-diethylthiadicarbocyanine iodide (DiSC2(5)) can be used to measure cell membrane polarization. Fluorescence of this dye is decreased when it inserts into polarized membranes, and membrane depolarization results in substantial increases in fluorescence (see FIG. 5).
MRSA was used to explore the impact of CSA-4110 on membrane depolarization and compared results to those with ceragenin CSA-131. […] Fluorescence was monitored over time after addition of CSA-4110 or CSA-131. which incorporated into cellular membranes.

[3] = system: strains of Staphylococcus aureus, Pseudomonas aeruginosa, and Candida albicans; conditions: previous work; strains of S. aureus, P. aeruginosa, C. albicans; cited from earlier work
PA01, MRSA and CA = assay: MIC, MBC and MFC screen, all three pathogens (summary statements); assay type: cell-based; conditions: compared with CSA-4110
From the text: as §1, §2

[4] = system: methicillin-resistant Staphylococcus aureus (MRSA); assay: Example 1 MIC/MBC (FIG. 1, FIG. 2), MRSA; assay type: cell-based
Procedure: as §3

[5] = MBC, value in parentheses, kills at least 99.9%

| Structure (SMILES) | MBC [1, 5] [µg/mL] | MIC [1] [µg/mL] | MBC [2] [µg/mL] | MIC [2] [µg/mL] | MBC (Candida albicans (CA)) [µg/mL] | MIC (Candida albicans (CA)) [µg/mL] | MBC or MFC (Candida albicans (CA)) | MIC (FIG. 1), ranking in words (Candida albicans 90028) | speed of depolarization of MRSA cells, comparison (MRSA ATCC BAA-42) | fluorescence of DiSC2(5) after addition (membrane depolarization) (MRSA ATCC BAA-42; added at 140 seconds) | MICs [3] [µg/mL] | MBC or MFC [2] | antimicrobial activity in MIC and MBC/MFC assays, in words (PA01, MRSA and CA) | MIC (FIG. 1), ranking in words [4] | MFC (FIG. 2), ranking in words (Candida albicans 90028) | MBC or MFC [1, 5] |
| --- | --- | --- | --- | --- | --- | --- | --- | --- | --- | --- | --- | --- | --- | --- | --- | --- |
| CCCCCCCC(=O)OCC(O)COC(=O)CC[C@@H](C)[C@H]1CC[C@H]2[C@@H]3[C@H](OC(=O)CCN)C[C@@H]4C[C@H](OC(=O)CCN)CC[C@]4(C)[C@H]3C[C@H](OC(=O)CCN)[C@]12C (stereo partly shown) [CSA-4108] | 32 (≈ 38.9 µM) | 16 (≈ 19.5 µM) | > 100 | 64 (≈ 77.8 µM) | 16 (≈ 19.5 µM) | 16 (≈ 19.5 µM) | 16 (16) μg/mL | same MIC | – | – | – | – | – | – | – | – |
| CCCCCCCCCCCCNCCC[C@@H](C)[C@H]1CC[C@H]2[C@@H]3[C@H](OCCCN)C[C@@H]4C[C@H](OCCCN)CC[C@]4(C)[C@H]3C[C@H](OCCCN)[C@]12C.Cl.Cl.Cl.Cl [CSA-131] | – | – | – | – | – | – | – | – | more rapidly than CSA-4110 | rapid increase of fluorescence | 0.5 to 2 | – | – | – | – | – |
| CCCC(=O)OCC(COC(=O)CC[C@@H](C)[C@H]1CC[C@H]2[C@@H]3[C@H](OC(=O)CCN)C[C@@H]4C[C@H](OC(=O)CCN)CC[C@]4(C)[C@H]3C[C@H](OC(=O)CCN)[C@]12C)OC(=O)CCC (stereo partly shown) [CSA-4204] | 8 (≈ 9.57 µM) | ≤ 8 | 100 (≈ 120 µM) | 64 (≈ 76.5 µM) | 32 (≈ 38.3 µM) | 16 (≈ 19.1 µM) | – | – | – | – | – | > 100 µg/mL | – | – | – | – |
| CCCCCCCCCC(=O)OC[C@@H](O)COC(=O)CC[C@@H](C)[C@H]1CC[C@H]2[C@@H]3[C@H](OC(=O)CCN)C[C@@H]4C[C@H](OC(=O)CCN)CC[C@]4(C)[C@H]3C[C@H](OC(=O)CCN)[C@]12C [CSA-4110R] | 4 (≈ 4.71 µM) | 4 (≈ 4.71 µM) | 8 (≈ 9.41 µM) | 4 (≈ 4.71 µM) | 8 (≈ 9.41 µM) | 8 (≈ 9.41 µM) | – | – | – | – | – | – | performed comparably to CSA-4110 | – | – | – |
| CCCCCCCCCCCC(=O)OCC(O)COC(=O)CC[C@@H](C)[C@H]1CC[C@H]2[C@@H]3[C@H](OC(=O)CCN)C[C@@H]4C[C@H](OC(=O)CCN)CC[C@]4(C)[C@H]3C[C@H](OC(=O)CCN)[C@]12C (stereo partly shown) [CSA-4112] | 32 (≈ 36.4 µM) | 16 (≈ 18.2 µM) | 64 (≈ 72.9 µM) | 64 (≈ 72.9 µM) | 16 (≈ 18.2 µM) | 16 (≈ 18.2 µM) | 16 (16) μg/mL | same MIC | – | – | – | – | – | – | – | – |
| CCCCCCCCCC(=O)OCC(COC(=O)CC[C@@H](C)[C@H]1CC[C@H]2[C@@H]3[C@H](OC(=O)CCN)C[C@@H]4C[C@H](OC(=O)CCN)CC[C@]4(C)[C@H]3C[C@H](OC(=O)CCN)[C@]12C)OC(=O)CCCCCCCCC (stereo partly shown) [CSA-4210] | > 100 | > 100 | > 100 | > 100 | > 100 | > 100 | – | – | – | – | – | – | – | – | – | – |
| CCCCCCCCCCCCCC(=O)OCC(O)COC(=O)CC[C@@H](C)[C@H]1CC[C@H]2[C@@H]3[C@H](OC(=O)CCN)C[C@@H]4C[C@H](OC(=O)CCN)CC[C@]4(C)[C@H]3C[C@H](OC(=O)CCN)[C@]12C (stereo partly shown) [CSA-4114] | > 100 | 64 (≈ 70.6 µM) | > 100 | > 100 | 64 (≈ 70.6 µM) | 64 (≈ 70.6 µM) | – | highest MIC | – | – | – | – | – | highest MIC | highest MFC | – |
| CCCCCCCCCC(=O)OC[C@H](O)COC(=O)CC[C@@H](C)[C@H]1CC[C@H]2[C@@H]3[C@H](OC(=O)CCN)C[C@@H]4C[C@H](OC(=O)CCN)CC[C@]4(C)[C@H]3C[C@H](OC(=O)CCN)[C@]12C [CSA-4110S] | 4 (≈ 4.71 µM) | 4 (≈ 4.71 µM) | 16 (≈ 18.8 µM) | 8 (≈ 9.41 µM) | 8 (≈ 9.41 µM) | 8 (≈ 9.41 µM) | – | – | – | – | – | – | performed comparably to CSA-4110 | – | – | – |
| CCCCCC(=O)OCC(COC(=O)CC[C@@H](C)[C@H]1CC[C@H]2[C@@H]3[C@H](OC(=O)CCN)C[C@@H]4C[C@H](OC(=O)CCN)CC[C@]4(C)[C@H]3C[C@H](OC(=O)CCN)[C@]12C)OC(=O)CCCCC (stereo partly shown) [CSA-4206] | 8 (≈ 8.97 µM) | ≤ 8 | 32 (≈ 35.9 µM) | 32 (≈ 35.9 µM) | 8 (≈ 8.97 µM) | 8 (≈ 8.97 µM) | 8 (8) μg/mL | – | – | – | – | 32 (32) μg/mL | – | – | – | 8 (8) μg/mL |
| CCCCCCCC(=O)OCC(COC(=O)CC[C@@H](C)[C@H]1CC[C@H]2[C@@H]3[C@H](OC(=O)CCN)C[C@@H]4C[C@H](OC(=O)CCN)CC[C@]4(C)[C@H]3C[C@H](OC(=O)CCN)[C@]12C)OC(=O)CCCCCCC (stereo partly shown) [CSA-4208] | 64 (≈ 67.5 µM) | 32 (≈ 33.7 µM) | > 100 | 64 (≈ 67.5 µM) | 64 (≈ 67.5 µM) | 64 (≈ 67.5 µM) | – | – | – | – | – | – | – | – | – | – |
